Measurements from patent US6001801A, “Cyclic peptide analogs of somatostatin” (Biomeasure, Inc., priority 1998, dated 1999).
Bridge positions count the residues as written; N and C are the ends. Square brackets hold non-standard residues; d marks the D form. Peptide text beside a SMILES is read from it.

Target: T1, human SSTR-5 (Homo sapiens, UniProt P35346)
T1 construct: expressed in transfected cells; host or cells: CHO-K1
Assay: Human SSTR-5 binding assay ([125I-Tyr11]somatostatin-14 displacement, membranes of transfected CHO-K1 cells)
Conditions: ratio greater than one = more selective for SSTR-5 than for SSTR-2
Method: (2) Human SSTR-5 Binding Assay
CHO-K1 cells were transfected with the human SSTR-5 cDNA, described in Yamada, et al., Biochem Biophys. Res. Commun., 195-844 (1993) using standard techniques known in the molecular biological art. See, e.g., Patel, et al., Biochem. Biophys. Res. Comm. 198:605 (1994). Crude membranes were prepared by homogenization of the human SSTR-5 transfected CHO-K1 cells in 20 ml of ice-cold 50 mM Tris-HCl with a POLYTRON™ homogenizer (setting 6, 15 sec). Buffer was added to obtain a final volume of 40 ml, and the homogenate was centrifuged in a SORVAL™ SS-34 rotor at 39,000 g for 10 min at 0-4° C. The resulting supernatant was decanted and discarded. The pellet was rehomogenized in ice-cold buffer, diluted, and centrifuged as before. The final pellet was resuspended in the 10 mM Tris HCl and held on ice for the receptor binding assay.
The final assay volume was 0.3 ml. The incubations were terminated by rapid filtration through GF/C filters (pre-soaked in 0.3% polyethylenimine for 30 min) using a Brandel filtration manifold. Each tube and filter was then washed three times with 5 ml aliquots of ice-cold buffer.

T1 sequence (P35346 whole entry): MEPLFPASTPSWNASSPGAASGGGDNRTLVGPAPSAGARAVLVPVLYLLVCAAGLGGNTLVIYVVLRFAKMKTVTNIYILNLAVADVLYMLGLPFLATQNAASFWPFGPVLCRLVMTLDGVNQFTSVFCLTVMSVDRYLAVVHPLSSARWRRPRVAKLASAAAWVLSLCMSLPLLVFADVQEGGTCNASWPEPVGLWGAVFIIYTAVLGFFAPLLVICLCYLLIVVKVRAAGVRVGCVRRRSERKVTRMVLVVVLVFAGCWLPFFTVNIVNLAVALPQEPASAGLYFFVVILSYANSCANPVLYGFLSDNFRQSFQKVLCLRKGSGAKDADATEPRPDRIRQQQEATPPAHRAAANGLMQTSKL

First: NCCCC[C@@H]1NC(=O)[C@@H](Cc2c[nH]c3ccccc23)NC(=O)[C@H](Cc2ccccc2)NC(=O)[C@H](Cc2ccccc2)NC(=O)[C@@H](N)CSSC[C@@H](C(N)=O)NC(=O)[C@H](Cc2ccccc2)NC(=O)[C@H](CO)NC1=O [Analog IV, H2 -c[Cys-Phe-Phe-D-Trp-Lys-Ser-Phe-Cys] -NH2] (H-CFF[dW]KSFC-NH2; disulfide 1-8)
Second: H2 -c[Cys-Asn-Phe-Phe-D-Trp-Lys-Thr-Phe-Cys]-NH2 [Analog V]
The “SSTR-2/SSTR-5 (ratio of the Ki's for human SSTR-2 and human SSTR-5)” value of the first is lower: 20.8 for the first, 53.1 for the second.

Compared with NCCCC[C@@H]1NC(=O)[C@@H](Cc2c[nH]c3ccccc23)NC(=O)[C@H](Cc2c[nH]c3ccccc23)NC(=O)[C@H](Cc2ccccc2)NC(=O)[C@@H](N)CSSC[C@@H](C(N)=O)NC(=O)[C@H](Cc2ccccc2)NC(=O)[C@H](CO)NC1=O [Analog III, H2 -c[Cys-Phe-Trp-D-Trp-Lys-Ser-Phe-Cys] -NH2] (H-CFW[dW]KSFC-NH2; disulfide 1-8), “H2 -c[Cys-Phe-Phe-D-Trp-Lys-Thr-Phe-Cys] -NH2 [Analog I]” is higher in “SSTR-2/SSTR-5 (ratio of the Ki's for human SSTR-2 and human SSTR-5)” value: 12.1 for the first, 40.2 for the second.

C[C@@H](O)[C@@H]1NC(=O)[C@H](CCCCN)NC(=O)[C@@H](Cc2c[nH]c3ccccc23)NC(=O)[C@H](Cc2ccccc2)NC(=O)[C@H](Cc2ccccc2)NC(=O)[C@H](N)CSSC[C@@H](C(N)=O)NC(=O)[C@H](Cc2ccccc2)NC1=O [Analog II, H2 -c[D-Cys-Phe-Phe-D-Trp-Lys-Thr-Phe-Cys] -NH2] (H-[dC]FF[dW]KTFC-NH2; disulfide 1-8) was tested, and the “SSTR-2/SSTR-5 (ratio of the Ki's for human SSTR-2 and human SSTR-5)” value was 4.94.
